The term CC50 denotes the concentration giving 50% cytotoxicity. Usually EC50 stands for the midpoint of the concentration-response curve.

The nature of series [1]: Cytotoxicity against MDCK cells assessed as reduction in cell viability measured after 48 hrs by WST-1 assay. It counts as toxicity, cell-based, Canis lupus familiaris. As to conditions: dog.
Series [2] has as its system Influenza A virus. In words: Antiviral activity against influenza A virus A/WSN/33 (H1N1) infected in MDCK cells assessed as reduction in cytopathic effect incubated for 48 hrs by crystal violet staining based plaque assay. It counts as functional, organism-based.
For series [3], the system named is Influenza A virus. In words: Antiviral activity against influenza A virus A/Sydney/5/1997 (H3N2) infected in MDCK cells assessed as reduction in cytopathic effect incubated for 48 hrs by crystal violet staining based plaque assay. It counts as functional, organism-based. For orientation: Cytopathic effects are the visible damage that an infection or toxin causes in cultured cells.

For series [4], the system named is Influenza A virus. The experiment in a line: Antiviral activity against influenza A virus A/duck/Hokkaido/Vac-3/2007 (H5N1) infected in MDCK cells assessed as reduction in cytopathic effect incubated for 48 hrs by crystal violet staining based plaque assay. It counts as functional, organism-based.
For series [5], the system named is Influenza A virus. In words: Antiviral activity against influenza A virus A/PuertoRico/8/1934 (H1N1) infected in MDCK cells assessed as reduction in cytopathic effect incubated for 48 hrs by crystal violet staining based plaque assay. It counts as functional, organism-based.
Series [6] concerns Influenza A virus. In words: Antiviral activity against Influenza A virus A/Panama/2007/99 (H3N2) infected in human A549 cells pretreated with cell for 2 hrs followed by viral infection for 1 hrs by plaque assay. It counts as functional, organism-based.
Series [7] concerns A549. In words: Cytotoxicity against human A549 cells incubated for 48 hrs by cell Titer-Glo assay. It counts as functional.
For series [8], the system named is Influenza A virus. The experiment in a line: Antiviral activity against Influenza A virus A/Vietnam/1203/04 (H5N1) HALo infected in human A549 cells pretreated with cell for 2 hrs followed by viral infection for 1 hrs by plaque assay. It counts as functional, organism-based.
The test system of series [9] is Influenza A virus. In words: Antiviral activity against Influenza A virus A/WSN/33 (H1N1) infected in human A549 cells pretreated with cell for 2 hrs followed by viral infection for 1 hrs by plaque assay. It counts as functional, organism-based.
The target in series [10] is Phosphatidylinositol 4-phosphate 3-kinase C2 domain-containing subunit beta (Homo sapiens, UniProt O00750). The experiment in a line: Inhibition of PIK3C2beta (unknown origin) by KINOMEscan method.
Sequence of Phosphatidylinositol 4-phosphate 3-kinase C2 domain-containing subunit beta (O00750 whole entry, the tested form may be a part): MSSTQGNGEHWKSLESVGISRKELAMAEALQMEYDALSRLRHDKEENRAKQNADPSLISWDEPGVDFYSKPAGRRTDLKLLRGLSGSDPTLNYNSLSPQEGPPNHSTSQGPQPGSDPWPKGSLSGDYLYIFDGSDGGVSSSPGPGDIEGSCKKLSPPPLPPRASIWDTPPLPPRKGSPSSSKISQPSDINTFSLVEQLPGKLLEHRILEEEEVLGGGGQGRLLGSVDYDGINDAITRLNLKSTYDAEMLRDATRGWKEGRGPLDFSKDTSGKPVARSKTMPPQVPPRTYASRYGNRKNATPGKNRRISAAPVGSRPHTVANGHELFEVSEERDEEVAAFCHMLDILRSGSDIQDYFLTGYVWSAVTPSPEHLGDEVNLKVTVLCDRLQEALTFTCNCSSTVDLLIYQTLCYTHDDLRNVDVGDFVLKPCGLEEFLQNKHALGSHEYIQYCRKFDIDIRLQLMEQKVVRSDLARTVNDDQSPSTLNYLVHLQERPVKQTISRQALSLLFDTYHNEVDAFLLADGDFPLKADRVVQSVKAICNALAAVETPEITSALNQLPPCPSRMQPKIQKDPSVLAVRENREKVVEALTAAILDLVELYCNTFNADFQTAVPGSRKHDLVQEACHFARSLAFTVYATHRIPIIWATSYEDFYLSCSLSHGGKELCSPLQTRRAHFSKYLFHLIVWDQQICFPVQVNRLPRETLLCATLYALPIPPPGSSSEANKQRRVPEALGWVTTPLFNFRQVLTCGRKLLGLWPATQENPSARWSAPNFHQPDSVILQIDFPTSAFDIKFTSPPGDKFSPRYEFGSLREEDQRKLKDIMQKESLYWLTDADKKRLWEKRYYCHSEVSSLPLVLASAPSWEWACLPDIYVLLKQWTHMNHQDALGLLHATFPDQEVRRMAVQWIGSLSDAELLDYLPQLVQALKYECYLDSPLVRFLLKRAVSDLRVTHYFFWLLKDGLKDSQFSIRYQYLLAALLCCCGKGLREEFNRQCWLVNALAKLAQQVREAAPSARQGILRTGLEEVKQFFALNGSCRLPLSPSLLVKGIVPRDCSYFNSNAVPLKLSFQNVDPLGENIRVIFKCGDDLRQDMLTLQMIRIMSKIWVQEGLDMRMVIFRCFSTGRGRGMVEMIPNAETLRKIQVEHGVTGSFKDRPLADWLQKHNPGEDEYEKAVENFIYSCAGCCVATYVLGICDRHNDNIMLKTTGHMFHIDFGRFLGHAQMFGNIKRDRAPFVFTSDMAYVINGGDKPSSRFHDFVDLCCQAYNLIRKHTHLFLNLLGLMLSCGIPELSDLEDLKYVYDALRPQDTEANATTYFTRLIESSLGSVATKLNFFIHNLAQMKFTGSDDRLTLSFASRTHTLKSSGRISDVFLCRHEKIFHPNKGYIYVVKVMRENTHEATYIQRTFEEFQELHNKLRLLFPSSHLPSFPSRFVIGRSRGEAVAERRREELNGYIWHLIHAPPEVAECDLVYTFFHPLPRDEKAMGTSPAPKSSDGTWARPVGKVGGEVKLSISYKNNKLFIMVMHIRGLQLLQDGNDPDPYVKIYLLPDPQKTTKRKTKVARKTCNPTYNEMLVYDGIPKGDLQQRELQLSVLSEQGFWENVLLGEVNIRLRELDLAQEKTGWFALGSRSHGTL
For series [11], the system named is Hepatitis C virus. The experiment in a line: Antiviral activity against Hepatitis C virus infected in human Huh7.5 cells pretreated with cell for 2 hrs followed by viral infection for 1 hrs by plaque assay. It counts as functional, organism-based, Hepacivirus hominis.
In series [12] the test system is rhinovirus B14. In words: Antiviral activity against Human rhinovirus 14 infected in human HeLa Ohio cells pretreated with cell for 2 hrs followed by viral infection for 1 hrs by plaque assay. It counts as functional, organism-based. The settings on record: Rhinovirus B.
In series [13] the test system is Influenza A virus. In words: Antiviral activity against influenza A virus A/WSN/1933 (H1N1) infected in HEK293T cells assessed as reduction in cytopathic effect incubated for 24 hrs. It counts as functional, organism-based. The settings on record: HEK-293T.
A short description of series [14]: Cytotoxicity against MDCK cells assessed as reduction in cell viability measured after 48 hrs by CCK-8 assay. It counts as toxicity, cell-based, Canis lupus familiaris. As to conditions: dog. Background: Tetrazolium assays rely on reduction of a dye to a coloured formazan, in cell work by metabolically active cells.
Series [15] concerns Influenza B virus. The experiment in a line: Antiviral activity against influenza B virus infected in HEK293T cells assessed as reduction in cytopathic effect incubated for 24 hrs. The settings on record: HEK-293T. It counts as functional, organism-based.
Series [16] concerns Influenza A virus. The experiment in a line: Antiviral activity against Influenza A virus A/California/04/2009 (H1N1) infected in MDCK cells pretreated with cell for 30 mins followed by viral infection and measured for 72 hrs by luminescence based assay. It counts as functional, organism-based.
Series [17] in a line: Selectivity index, ratio of IC50 for cytotoxicity against MDCK cells to EC50 for antiviral activity Influenza A virus A/California/04/2009 (H1N1) infected in MDCK cells. It counts as toxicity, cell-based. As to conditions: dog, read-out: Selectivity Index.
Series [18] in a line: Selectivity index, ratio of IC50 for cytotoxicity against MDCK cells to EC50 for antiviral activity Influenza A virus A/Vietnam/1203/2004 (H5N1) infected in MDCK cells. It counts as toxicity, cell-based. As to conditions: dog, read-out: Selectivity Index.
The test system of series [19] is Influenza A virus. In words: Antiviral activity against Influenza A virus A/Vietnam/1203/2004 (H5N1) infected in MDCK cells pretreated with cell for 30 mins followed by viral infection and measured for 72 hrs by luminescence based assay. It counts as functional, organism-based.
Series [20] can be described thus: Cytotoxicity against MDCK cells assessed as reduction in cell viability measured after 72 hrs by CCK8 assay. The settings on record: dog. It counts as toxicity, cell-based, Canis lupus familiaris.
For series [21], the system named is Influenza A virus. In words: Antiviral activity against influenza A virus A/Anhui/1/2005 (H5N1) infected in MDCK cells assessed as reduction in cytopathic effect incubated for 72 hrs by CPE assay. It counts as functional, organism-based.
Series [22] has as its system Influenza A virus. The experiment in a line: Antiviral activity against Influenza A virus A/PR/8/34 (H1N1) infected in human A549 cells pretreated with cell for 3 hrs followed by viral infection and measured for 24 hrs. It counts as functional, organism-based.
The nature of series [23]: Cytotoxicity against human A549 cells incubated for 48 hrs by neutral red uptake assay. It counts as toxicity, cell-based.
Series [24] in a line: Cytotoxicity against MDCK cells assessed as reduction in cell viability measured after 72 hrs by fluorescence based assay. It counts as toxicity, Canis lupus familiaris. The settings on record: dog.
Series [25] concerns Influenza A virus. The experiment in a line: Antiviral activity against influenza A virus A/WSN/1933 (H1N1) infected in MDCK cells assessed as reduction in cytopathic effect by fluorescence based analysis. It counts as functional, organism-based.
Series [26] deals with Influenza A virus. In words: Antiviral activity against Influenza A virus A (H1N1). It counts as functional, organism-based.
Series [27] can be described thus: Cytotoxicity against MDCK cells. It counts as toxicity, cell-based, Canis lupus familiaris. The settings on record: dog.
The subject of series [28] is Influenza A virus. The experiment in a line: Antiviral activity against influenza A virus H5N1,A/Vietnam/1194/2004 infected in MDCK cells assessed as reduction in plaque formation incubated for 72 hrs by crystal violet staining based analysis. It counts as functional, organism-based. The settings on record: H5N1,A/Vietnam/1194/2004, MDCK.
Series [29] deals with Influenza A virus. In words: Antiviral activity against influenza A virus H1N1,A/WSN/1933 infected in MDCK cells assessed as reduction in plaque formation incubated for 72 hrs by crystal violet staining based analysis. It counts as functional, organism-based. The settings on record: H1N1,A/WSN/1933, MDCK.
Series [30] can be described thus: Cytotoxicity against MDCK cells assessed as reduction in cell viability measured after 72 hrs by MTT assay. It counts as toxicity, cell-based, Canis lupus familiaris. As to conditions: dog.
Series [31] concerns Influenza A virus. In words: Antiviral activity against Influenza A virus A/California/7/2009 (H1N1) infected in MDCK cells measured after 24 hrs post infection. It counts as functional, organism-based.
Series [32] is described as follows: Cytotoxicity against MDCK cell incubated for 72 hrs by EZ-Cytox cell viability assay. The settings on record: dog, MDCK cells. It counts as toxicity, cell-based, Canis lupus familiaris.
Series [33] deals with Influenza A virus. In words: Antiviral activity against Influenza A virus A/Perth/16/2009 (H3N2) infected in MDCK cells measured after 24 hrs post infection. It counts as functional, organism-based.
In series [34] the test system is Influenza B virus. In words: Antiviral activity against influenza B virus B/Florida/04/2006 infected in MDCK cells measured after 24 hrs post infection. The settings on record: B/Florida/04/2006, MDCK. It counts as functional, organism-based.

Turning to `OC(CN1CCCCC1)Cn1c2c(c3ccccc31)CCCC2` (stereo unspecified), the cytotoxic concentration (CC50) at 48 h in [1] was over 200000 nM. Further, the EC50 in [2] came out at 35600 nM; in series [3] it was 44700 nM; in series [4] it was 39800 nM; in series [5], 30700 nM.
`O=C(Cc1cccs1)Nc1cccc(-c2ccc3nnc(-c4cccnc4)n3n2)c1`: the EC50 in [6] was 1220 nM; in series [8] it was 1770 nM; in series [9], 2050 nM; in [10] it was 430 nM; in series [11], 760 nM; in series [12] it was 50 nM. In [7], the CC50 was over 50000 nM.
Take `C/C(=C\CC/C(C)=C/C[C@]1(O)C(=O)c2c(O)cc(C)c3c(O)c(C)c(O)c(c23)C1=O)CC/C=C(\CO)CC[C@@H](O)C(C)(C)O`: the EC50 came to 280 nM in series [13] and 1220 nM in [15]. Also, the CC50 at 48 h in series [14] is over 100000 nM.
On to `CC1CC2=C(NC(=O)NC2c2ccc(O)c(Br)c2)c2ccccc21` (stereo unspecified), for which the EC50 in series [16] is 98 nM; in series [19], 46 nM. The selectivity ratio in series [17] was over 510; in series [18], over 1090.
Regarding `CCCC(=O)c1c(O)c(CC2=C(O)C(C)(C)C(O)=C(C(C)=O)C2=O)c(O)c(Cc2c(O)c(CC3=C(O)C(C)(C)C(O)=C(C(C)=O)C3=O)c(O)c(C(=O)CCC)c2O)c1O`, the CC50 at 72 h in series [20] was over 400000 nM. For the same compound, the EC50 in [21] is 16600 nM.
Regarding `O=C(CSc1nnnn1-c1ccccc1)NCc1ccccc1`, the EC50 in [22] amounted to 46400 nM. In addition, the CC50 at 48 h in series [23] is over 150000 nM.
Take `CCCCN1Cc2ccccc2Oc2ccccc2S1(=O)=O`: in series [24], the CC50 at 72 h was over 100000 nM. The EC50 in series [25] was found to be 380 nM.
For the compound `Cc1cccc(N2CCN(Cc3n[nH]c(=O)n3Cc3cccc(F)c3)CC2)c1C`, the half-maximal cytotoxic concentration (CC50) at 72 h in [24] is over 100000 nM. In addition, the 50% effective concentration (EC50) in series [25] worked out at 170 nM.
With `C=C1Cc2cc(C(F)(F)F)ccc2C(=O)NCC(C)/C(=N/OC)CCCCOC1=O` (stereo unspecified), the EC50 in series [26] was found to be 570 nM. Further, the CC50 in [27] is over 100000 nM.
Consider `Cc1cc(C(=O)NC(C)C23CC4CC(CC(C4)C2)C3)c(C)o1` (stereo unspecified), for which the results for the EC50 in series [28] and in series [29] were 80 nM and 69 nM, respectively. The CC50 at 72 h in series [30] was found to be 73000 nM.
On to `COc1ccccc1-c1cc2c(Nc3ccccc3)nccc2n1C`, for which the EC50 in [31] is 1170 nM; in [33] it was 8290 nM; in [34] it was 12900 nM. Besides, in series [32], the CC50 at 72 h was determined as 27200 nM.

The values are drawn from ChEMBL document CHEMBL5376009 (RSC Med Chem, 2024).
